Data from patent publication EP1641803B1, “THIENOPYRIMIDINE DERIVATIVES AS POTASSIUM CHANNEL INHIBITORS” (Xention Limited, priority 2003, dated 2004).

Experiments:
hKv1.5 = hKv1.5 (Homo sapiens, UniProt P22460); assay: Kv1.5 Autopatch Electrophysiology (whole cell patch-clamp); type: cell-based; settings: compound at 1µM, room temperature (22-24°C), held at -80mV, step to 0mV for 1000ms, total charge measured
Experimental: The external bathing solution contained (in mM): 150 NaCl, 10 KCl, […], 3 MgCl2, 1 CaCl2, 10 HEPES, pH 7.4. Patch pipettes were filled with an electrode solution of composition (in mM): 160 KCl, 0.5 MgCl2, 10 HEPES, 1 EGTA, pH 7.4 with KOH.
Compounds were dissolved in DMSO (100 %) and made up in the external bather at a concentration of 1µM. All experiments were conducted at room temperature (22-24°C).
A cell suspension (10 ml), with a density of 100,000 cells/ml, was aliquoted into a 15ml centrifuge tube and transferred to an incubator (37°C, 5% CO2) for approximately one hour before use. Following 60 min incubation, a tube was taken and centrifuged at 1000 rpm for 4 mins at room temperature. 9.5 ml supernatant was thence discarded, leaving a cell pellet at the bottom of the tube. The pellet was then resuspended using 100 µl of cold (4 °C), filtered (0.22 µm), 0.2 % BSA/bather solution (0.02g BSA/10ml bather). The bottom of the tube was manually agitated gently until the solution became cloudy with cells. The 100 µl cell resuspension solution was then stored on the bench at 4 °C (using a Peltier-based temperature control device) until used.
A length of capillary glass (1B150F-4, WPI) was dipped into the cell suspension solution, such that - 3 cm column of fluid was taken up by capillary action. A Ag/AgCl wire was dropped into the non-dipped end of the capillary also. The outside of the solution-filled end of the capillary was then dried and the capillary was loaded into the AutoPatch™. Borosilicate glass patch pipettes (from 1.5mm OD, thin-walled filamented, GC150-TF capillary glass, Harvard) were pulled using a DMZ pipette puller (Zeitz Instruments), and were back-filled using the internal pipette solution, being careful that no bubbles remain at the tip or in the body of the pipette. Patch pipettes typically had resistances of 2.3-3.5 MΩ. Once filled, the pipette tip and a proportion of the shaft (- 15 mm) were dipped into Sigmacote (Sigma). The recording pipette was then loaded into the AutoPatch™.
Automated patch-clamping was initiated by the operator, but thereafter AutoPatch.exe continued the experiment providing that pre-set conditions and criteria were satisfied.
Whole cell patch-clamp recordings were made using the AutoPatch™ rig, which incorporated an EPC9 amplifier (HEKA, Germany) under control of Pulse software (v8.54, HEKA, Germany), a motion controller with 2 translators (Newport, UK), valve controller (VF1) and a c-level suction device all at room temperature (22-24°C). This equipment was completely under the control of AutoPatch.exe and operator intervention was only made when there was a requirement to refill the drug reservoirs or to prevent the loss of a cell due to a technical error. Cells with an Rseries greater than 18 MΩ were discounted from the experiment.
Qualification stages prior to perfusion and drug application ensured that the observed current met the criteria for the experiment. Only those cells with an IK > 500 pA were used for experiments. Cells were continuously perfused with external solution at a flow rate of 1.8-2 ml/minute. […] Online analysis of the hKv1.5 current during the application of compounds was performed by the AutoPatch™ software. Voltage-step protocols and analysis of data was performed as described for conventional electrophysiology.
Electrophysiology voltage-step protocols and analysis of data was performed as follows. Data was sampled at 5kHz, and filtered with a -3 dB bandwidth of 2.5kHz. Cells were held at a voltage of -80mV. Currents were evoked to a voltage step for 1000ms in duration at 0mV every 5s. Currents were analysed using Pulsefit software (v8.54, HEKA, Germany), with the total charge measured during the whole of the voltage step. All other plots were produced using Igor Pro (WaveMetrics).

human Kv1.5 = target: T1, human Kv1.5 (Homo sapiens, UniProt P22460); assay: Kv1.5 Rb+ Efflux Assay; type: cell-based; settings: inhibition of 86Rb+ efflux through Kv1.5; cells stably transfected with human Kv1.5; 10 point concentration response curves n=2; normalised to 2.5mM 4 amino-pyridine block
T1 construct: expressed in transfected cells
Experimental: The pore of a potassium channel is permeable to other monovalent cations such as Rb^+ and Tl^+. Analysis of cellular efflux of potassium channel permeable ions enables potassium channel activity to be monitored directly. Cells stably transfected with cDNA for human Kv1.5 (in pEF6::VA-His-TOPO) were grown in Dulbecco's Modified Eagle media (DMEM) alpha supplemented with 10% Fetal Calf Serum (FCS), 20 µl/ml penicillin (5000U/ml) streptomycin (5000µg/ml), 10µl/ml [100x] glutamine, and blasticidin (7.5µg/ml). Cells were dispensed into 96 well cellstar TC plates and allowed to grow until a confluent monolayer was visible. On the morning of the assay run, cold media was aspirated using the TECAN plate washer, and a 50µl media spike containing 2µCi/ml (37kBq/ml) ^86Rb^+ added to each well containing cells using the Shallow-Well Matrix Platemate. Plates were placed in a incubator at 37°C for a minimum of 3 hours. Unloaded ^86Rb^+ in the "hot" media was aspirated and each well washed 4x250µl with Earls Balanced Salt Solution (EBSS) which contained 5mM KCl, 140mM NaCl, 2mM CaCl2, 1mM MgSO4, 10mM HEPES, and 5mM glucose, pH 7.4, 290-300 mOsm. These cells were then pre-incubated with 50µl of EBSS +/- test compounds for 10 minutes at room temperature. After the 10 minute incubation, 50µl of modified EBSS which contained 145mM KCl, 2mM CaCl2, 1mM MgSO4, 10mM HEPES, 5mM glucose, pH 7.4, 290-300 mOsm, was added, and the cells were incubated for a further 10 minutes at room temperature. The high KCl EBSS was used to depolarise cells to a membrane potential that would activate Kv1.5 channels. After the final incubation 80µl/100µl of the reaction from each well was transferred to equivalent wells in a Packard "Optiplate" white 96 well plate and counted in a Packard TopCount liquid scintillation counter by Cerenkov emission. Percentage inhibition ^86Rb^+ efflux through Kv1.5 was calculated by normalisation to 2.5mM 4 amino-pyridine control block of Kv1.5. Alternatively cells were loaded with ^85Rb^+ and quantified by atomic absorption spectroscopy. IC50 determinations were derived from 10 point concentration response curves n=2 using the method described above. Data was fitted as variable slope sigmoidal fit using Graphpad Prism (V3.02) software.

hKv1.5, sequence (P22460 whole entry): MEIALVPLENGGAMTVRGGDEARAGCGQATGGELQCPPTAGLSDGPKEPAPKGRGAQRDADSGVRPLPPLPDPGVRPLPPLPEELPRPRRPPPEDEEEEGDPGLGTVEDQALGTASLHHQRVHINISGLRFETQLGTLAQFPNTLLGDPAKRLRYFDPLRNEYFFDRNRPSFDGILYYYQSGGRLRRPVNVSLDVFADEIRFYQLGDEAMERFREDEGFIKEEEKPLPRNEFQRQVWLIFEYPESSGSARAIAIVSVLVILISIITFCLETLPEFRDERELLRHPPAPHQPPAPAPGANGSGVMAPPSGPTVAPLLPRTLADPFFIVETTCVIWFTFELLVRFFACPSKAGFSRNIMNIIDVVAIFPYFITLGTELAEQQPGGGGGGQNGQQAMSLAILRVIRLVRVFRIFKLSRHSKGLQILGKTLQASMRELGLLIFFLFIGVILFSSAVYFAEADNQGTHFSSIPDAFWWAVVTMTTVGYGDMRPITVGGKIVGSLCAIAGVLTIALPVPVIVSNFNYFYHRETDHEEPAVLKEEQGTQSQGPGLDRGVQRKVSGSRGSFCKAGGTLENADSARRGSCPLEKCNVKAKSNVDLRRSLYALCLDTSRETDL
T1 sequence (P22460 whole entry): as above

SMILES	inhibition at 1 µM (hKv1.5) [%]	IC50 (human Kv1.5) [µM]	% Inhibition at 1µM (hKv1.5) [%]
CN(C)C(=O)CNc1ncnc2scc(-c3ccccc3)c12 [Example 103, N,N-Dimethyl-2-(5-phenyl-thieno[2,3-d]pyrimidin-4-ylamino)-acetamide]	13.6	> 30	
c1ccc(-c2csc3ncnc(NCc4ccccn4)c23)cc1 [Example 105, (5-Phenyl-thieno[2,3-d]pyrimidin-4-yl)-pyridin-2-ylmethyl-amine]	63	0.28	
c1ccc(-c2csc3ncnc(OCc4ccccn4)c23)cc1 [Example 106, 5-Phenyl-4-(pyridin-2-ylmethoxy)-thieno[2,3-d]pyrimidine]	21.9	0.33	
c1ccc(-c2csc3ncnc(NCc4ccoc4)c23)cc1 [Example 107, Furan-3-ylmethyl-(5-phenyl-thieno[2,3-d]pyrimidin-4-yl)-amine]	25.3	1.05	
Cc1ccc(CNc2ncnc3scc(-c4ccccc4)c23)o1 [Example 108, (5-Methyl-furan-2-ylmethyl)-(5-phenyl-thieno[2,3-d]pyrimidin-4-yl)-amine]	37.2	0.41	
c1ccc(-c2csc3ncnc(OCc4ccco4)c23)cc1 [Example 109, 4-(Furan-2-ylmethoxy)-5-phenyl-thieno[2,3-d]pyrimidine]	52.3	0.8	
Cn1cccc1CNc1ncnc2scc(-c3ccccc3)c12 [Example 110, (1-Methyl-1H-pyrrol-2-ylmethyl)-(5-phenyl-thieno[2,3-d]pyrimidin-4-yl)-amine]	14.2	3.9	
COC(=O)CNc1ncnc2scc(-c3ccccc3)c12 [Example 112, (5-Phenyl-thieno[2,3-d]pyrimidin-4-ylamino)-acetic acid methyl ester]	43.5	5.03	
c1csc(CNc2ncnc3scc(-c4cccs4)c23)c1 [Example 115, Thiophen-2-ylmethyl-(5-thiophen-2-yl-thieno[2,3-d]pyrimidin-4-yl)-amine]		7.07	45.9
c1ccc(-c2csc3ncnc(SCc4ccco4)c23)cc1 [Example 117, 4-(Furan-2-ylmethylsulfanyl)-5-phenyl-thieno[2,3-d]pyrimidine]	43.6	9.37	57.2
c1ccc(-c2csc3ncnc(NCCc4cccs4)c23)cc1 [Example 118, (5-Phenyl-thieno[2,3-d]pyrimidin-4-yl)-(2-thiophen-2-yl-ethyl)-amine]	15.8	8.56	
c1ccc(COc2ncnc3scc(-c4ccccc4)c23)cc1 [Example 119, 4-Benzyloxy-5-phenyl-thieno[2,3-d]pyrimidine]	44.1	5.79	
Cc1ccc(-c2csc3ncnc(NCc4ccccn4)c23)nc1 [Example 121, [5-(5-Methyl-pyridin-2-yl)-thieno[2,3-d]pyrimidin-4-yl]-pyridin-2-ylmethyl-amine]	82.6	2.09	
Cc1ccc(-c2csc3ncnc(NCc4ccco4)c23)nc1 [Example 122, Furan-2-ylmethyl-[5-(5-methyl-pyridin-2-yl)-thieno[2,3-d]pyrimidin-4-yl]-amine]	36.3	3.53	
Cc1ccc(-c2csc3ncnc(Oc4ccc5ccccc5c4)c23)cc1 [Example 129, 4-(Naphthalen-2-yloxy)-5-p-tolyl-thieno[2,3-d]pyrimidine]	47.4	> 30	
Cc1ccc(-c2csc3ncnc(NCCc4ccc5c(c4)OCCO5)c23)cc1C [Example 132, [2-(2,3-Dihydro-benzo[1,4]dioxin-6-yl)-ethyl]-[5-(3,4-dimethyl-phenyl)-thieno[2,3-d]pyrimidin-4-yl]-amine]	92	4.58	

Next, values leading:

inhibition at 1 µM (hKv1.5) [%]	IC50 (human Kv1.5) [µM]	% Inhibition at 1µM (hKv1.5) [%]	SMILES
40	4.49	22.2	c1ccc(-c2csc3ncnc(NCCc4ccccn4)c23)cc1 [Example 111, (5-Phenyl-thieno[2,3-d]pyrimidin-4-yl)-(2-pyridin-2-yl-ethyl)-amine]
25	12.7		c1ccc(-c2csc3ncnc(SCc4ccccn4)c23)cc1 [Example 120, 5-Phenyl-4-(pyridin-2-ylmethylsulfanyl)-thieno[2,3-d]pyrimidine]
83.4	0.47		Cc1ccc(-c2csc3ncnc(NCc4ccco4)c23)cc1 [Example 126, Furan-2-ylmethyl-(5-p-tolyl-thieno[2,3-d]pyrimidin-4-yl)-amine]
20.7	5.3		COc1ccc(CCNc2ncnc3scc(-c4ccc(C)cc4)c23)cc1OC [Example 127, [2-(3,4-Dimethoxy-phenyl)-ethyl]-(5-p-tolyl-thieno[2,3-d]pyrimidin-4-yl)-amine]
25	> 30		Cc1ccc(-c2csc3ncnc(NCCN4CCNC4=O)c23)cc1 [Example 128, 1-[2-(5-p-Tolyl-thieno[2,3-d]pyrimidin-4-ylamino)-ethyl]-imidazolidin-2-one]
29.8	> 30		COC(=O)c1ccc(Oc2ncnc3scc(-c4ccc(C)cc4)c23)cc1 [Example 131, 4-(5-p-Tolyl-thieno[2,3-d]pyrimidin-4-yloxy)-benzoic acid methyl ester]
77	0.67		Cc1ccc(-c2csc3ncnc(NCc4ccco4)c23)cc1C [Example 133, [5-(3,4-Dimethyl-phenyl)-thieno[2,3-d]pyrimidin-4-yl]-furan-2-ylmethyl-amine]
84.8	0.93		Clc1ccc(-c2csc3ncnc(NCc4ccco4)c23)cc1 [Example 135, [5-(4-Chloro-phenyl)-thieno[2,3-d]pyrimidin-4-yl]-furan-2-ylmethyl-amine]
